The subject of the test is KMS.12.BM cells. In words: KMS.12.BM cell viability assay (Cell Titer-GLO, ATP quantitation). Format: cell-based. Conditions: KMS-12-BM, 72 h; human myeloma cells, 3 days, concentration required for 50% cell death. The procedure: Example B1: KMS.12.BM Cell Viability Assay
KMS.12.BM cell line (human myeloma) was purchased from JCRB (Osaka, Japan) and maintained in RPMI with 10% FBS culture medium. To measure the cytotoxic activity of the compounds through ATP quantitation, the KMS.12.BM cells are plated in the RPMI culture medium at 5000 cells/well/per 100 μL into a 96-well polystyrene clear black tissue culture plate (Greiner-bio-one through VWR, NJ), in the presence or absence of a concentration range of test compounds. After 3 days, […] Cell Titer-GLO Luminescent (Promega, Madison, Wis.) cell culture agent is added to each well for 10 minutes at room temperature to stabilize the luminescent signal. This determines the number of viable cells in culture based on quantitation of the ATP present, which signals the presence of metabolically active cells. Luminescence is measured with the Top Count 384 (Packard Bioscience through Perkin Elmer, Boston, Mass.). Compound inhibition is determined relative to cells cultured with no drug and the IC50 is reported as the compound concentration required for 50% cell death.
In general terms: Cellular ATP, detected with luciferase, serves as a proxy for viable cell number.

In general, IC50 refers to the midpoint of a concentration-inhibition curve. The low end stands for greater potency, the high end for weaker potency. As to `CC(C)C1Oc2c(-c3cn(C)c(=O)c4[nH]ccc34)cc(C#N)cc2N(C)C1=O` (centres unmarked) [Example 18, 2-isopropyl-4-methyl-8-(6-methyl-7-oxo-6,7-dihydro-1H-pyrrolo[2,3-c]pyridin-4-yl)-3-oxo-3,4-dihydro-2H-1,4-benzoxazine-6-carbonitrile], the IC50 was ≤ 1000 nM.
In the case of `CC(C)C1Oc2c(-c3cn(C)c(=O)c4[nH]ccc34)cc(C(N)=O)cc2N(C)C1=O` (centres unmarked) [Example 19, 2-isopropyl-4-methyl-8-(6-methyl-7-oxo-6,7-dihydro-1H-pyrrolo[2,3-c]pyridin-4-yl)-3-oxo-3,4-dihydro-2H-1,4-benzoxazine-6-carboxamide] it was ≤ 1000 nM.
Consider `CNC(=O)c1cc2c(c(-c3cn(C)c(=O)c4[nH]ccc34)c1)OC(C(C)C)C(=O)N2` (centres unmarked) [Example 20, 2-isopropyl-N-methyl-8-(6-methyl-7-oxo-6,7-dihydro-1H-pyrrolo[2,3-c]pyridin-4-yl)-3-oxo-3,4-dihydro-2H-1,4-benzoxazine-6-carboxamide], for which the IC50 was ≤ 1000 nM.
As to `CC(C)C1Oc2c(cc([N+](=O)[O-])cc2-c2cn(C)c(=O)c3[nH]ccc23)NC1=O` (centres unmarked) [Example 21, 2-isopropyl-8-(6-methyl-7-oxo-6,7-dihydro-1H-pyrrolo[2,3-c]pyridin-4-yl)-6-nitro-2H-1,4-benzoxazin-3(4H)-one], the IC50 is ≤ 1000 nM.
In the case of `COc1cc(-c2cn(C)c(=O)c3[nH]ccc23)c2c(c1)N(C)CC(C(C)C)O2` (centres unmarked) [Example 22, 4-(2-isopropyl-6-methoxy-4-methyl-3,4-dihydro-2H-1,4-benzoxazin-8-yl)-6-methyl-1,6-dihydro-7H-pyrrolo[2,3-c]pyridin-7-one] it was 1000 to 10000 nM.
The figure for `COc1cc2c(c(-c3cn(C)c(=O)c4[nH]ccc34)c1)OC(C1CC1)C(=O)N2` (centres unmarked) [Example 23, 2-cyclopropyl-6-methoxy-8-(6-methyl-7-oxo-6,7-dihydro-1H-pyrrolo[2,3-c]pyridin-4-yl)-2H-1,4-benzoxazin-3(4H)-one] is 1000 to 10000 nM; for `COc1cc2c(c(-c3cn(C)c(=O)c4[nH]ccc34)c1)OC(c1ccccc1)C(=O)N2` (centres unmarked) [Example 24, 6-methoxy-8-(6-methyl-7-oxo-6,7-dihydro-1H-pyrrolo[2,3-c]pyridin-4-yl)-2-phenyl-2H-1,4-benzoxazin-3(4H)-one] it is ≤ 1000 nM; for `COc1cc2c(c(-c3cn(C)c(=O)c4[nH]ccc34)c1)OC(c1ccc(F)cc1Cl)C(=O)N2` (centres unmarked) [Example 25, 2-(2-chloro-4-fluorophenyl)-6-methoxy-8-(6-methyl-7-oxo-6,7-dihydro-1H-pyrrolo[2,3-c]pyridin-4-yl)-2H-1,4-benzoxazin-3(4H)-one] it is ≤ 1000 nM.
With `COc1cc2c(c(-c3cn(C)c(=O)c4[nH]ncc34)c1)OC(C(C)C)C(=O)N2` (centres unmarked) [Example 26, 2-isopropyl-6-methoxy-8-(6-methyl-7-oxo-6,7-dihydro-1H-pyrazolo[3,4-c]pyridin-4-yl)-2H-1,4-benzoxazin-3(4H)-one], the 50% inhibitory concentration (IC50) was ≤ 1000 nM.
The figure for `COc1cc2c(c(-c3cn(C)c(=O)c4[nH]ccc34)c1)OC(C)(C)C(=O)N2` [Example 27, 6-methoxy-2,2-dimethyl-8-(6-methyl-7-oxo-6,7-dihydro-1H-pyrrolo[2,3-c]pyridin-4-yl)-2H-1,4-benzoxazin-3(4H)-one] is ≤ 1000 nM; for `CC(C)C1Oc2c(cc(-c3cnn(C)c3)cc2-c2cn(C)c(=O)c3[nH]ccc23)NC1=O` (centres unmarked) [Example 28, 2-isopropyl-8-(6-methyl-7-oxo-6,7-dihydro-1H-pyrrolo[2,3-c]pyridin-4-yl)-6-(1-methyl-1H-pyrazol-4-yl)-2H-1,4-benzoxazin-3(4H)-one] it is ≤ 1000 nM; for `COc1cc2c(c(-c3cn(C)c(=O)c4[nH]ncc34)c1)OC(C)(C)C(=O)N2` [Example 29, 6-methoxy-2,2-dimethyl-8-(6-methyl-7-oxo-6,7-dihydro-1H-pyrazolo[3,4-c]pyridin-4-yl)-2H-1,4-benzoxazin-3(4H)-one] it is ≤ 1000 nM.
Regarding `Cn1cc(-c2cccc3c2OC2(CC2)C(=O)N3)c2cc[nH]c2c1=O` [Example 30, 8-(6-methyl-7-oxo-6,7-dihydro-1H-pyrrolo[2,3-c]pyridin-4-yl)spiro[1,4-benzoxazine-2,1′-cyclopropan]-3(4H)-one], the half-inhibitory concentration (IC50) is ≤ 1000 nM.
For the molecule `Cn1cc(-c2cccc3c2OC(C)(C)C(=O)N3)c2cc[nH]c2c1=O` [Example 31, 2,2-dimethyl-8-(6-methyl-7-oxo-6,7-dihydro-1H-pyrrolo[2,3-c]pyridin-4-yl)-2H-1,4-benzoxazin-3(4H)-one], the IC50 is ≤ 1000 nM.
In the case of `Cn1cc(-c2cccc3c2NC(C)(C)C(=O)N3)c2cc[nH]c2c1=O` [Example 32, 3,3-dimethyl-5-(6-methyl-7-oxo-6,7-dihydro-1H-pyrrolo[2,3-c]pyridin-4-yl)-3,4-dihydroquinoxalin-2(1H)-one] it was ≤ 1000 nM; in that of `CC(C)C1Oc2c(cc(C(=O)N3CCOCC3)cc2-c2cn(C)c(=O)c3[nH]ccc23)NC1=O` (centres unmarked) [Example 33, 2-isopropyl-8-(6-methyl-7-oxo-6,7-dihydro-1H-pyrrolo[2,3-c]pyridin-4-yl)-6-(morpholin-4-ylcarbonyl)-2H-1,4-benzoxazin-3(4H)-one], ≤ 1000 nM; in that of `CC(C)C1Oc2c(cc(C(=O)N(C)C)cc2-c2cn(C)c(=O)c3[nH]ccc23)NC1=O` (centres unmarked) [Example 34, 2-isopropyl-N,N-dimethyl-8-(6-methyl-7-oxo-6,7-dihydro-1H-pyrrolo[2,3-c]pyridin-4-yl)-3-oxo-3,4-dihydro-2H-1,4-benzoxazine-6-carboxamide], ≤ 1000 nM.
Consider `COc1cc2c(c(-c3cn(C)c(=O)c4[nH]ccc34)c1)OC(C1CCCC1)C(=O)N2` (centres unmarked) [Example 35, 2-cyclopentyl-6-methoxy-8-(6-methyl-7-oxo-6,7-dihydro-1H-pyrrolo[2,3-c]pyridin-4-yl)-2H-1,4-benzoxazin-3(4H)-one], for which the half-maximal inhibitory concentration (IC50) is ≤ 1000 nM.
The figure for `CC(C)C1Oc2c(cc(CO)cc2-c2cn(C)c(=O)c3[nH]ccc23)NC1=O` (centres unmarked) [Example 36, 6-(hydroxymethyl)-2-isopropyl-8-(6-methyl-7-oxo-6,7-dihydro-1H-pyrrolo[2,3-c]pyridin-4-yl)-2H-1,4-benzoxazin-3(4H)-one] is ≤ 1000 nM.
The figure for `COCc1cc2c(c(-c3cn(C)c(=O)c4[nH]ccc34)c1)OC(C(C)C)C(=O)N2` (centres unmarked) [Example 37, 2-isopropyl-6-(methoxymethyl)-8-(6-methyl-7-oxo-6,7-dihydro-1H-pyrrolo[2,3-c]pyridin-4-yl)-2H-1,4-benzoxazin-3(4H)-one] is ≤ 1000 nM; for `CC(=O)NCc1cc2c(c(-c3cn(C)c(=O)c4[nH]ccc34)c1)OC(C(C)C)C(=O)N2` (centres unmarked) [Example 40, N-{[2-isopropyl-8-(6-methyl-7-oxo-6,7-dihydro-1H-pyrrolo[2,3-c]pyridin-4-yl)-3-oxo-3,4-dihydro-2H-1,4-benzoxazin-6-yl]methyl}acetamide] it is ≤ 1000 nM; for `CC(C)C1Oc2c(cc(C(N)=O)cc2-c2cn(C)c(=O)c3[nH]ccc23)NC1=O` (centres unmarked) [Example 41, 2-isopropyl-8-(6-methyl-7-oxo-6,7-dihydro-1H-pyrrolo[2,3-c]pyridin-4-yl)-3-oxo-3,4-dihydro-2H-1,4-benzoxazine-6-carboxamide] it is ≤ 1000 nM.
For `COc1cc2c(c(-c3cn(C)c(=O)c4[nH]ncc34)c1)OC(C1CCCC1)C(=O)N2` (centres unmarked) [Example 42, 2-Cyclopentyl-6-methoxy-8-(6-methyl-7-oxo-6,7-dihydro-1H-pyrazolo[3,4-c]pyridin-4-yl)-2H-1,4-benzoxazin-3(4H)-one], the IC50 was ≤ 1000 nM.
On to `CC(C)C1Oc2c(cc(S(C)(=O)=O)cc2-c2cn(C)c(=O)c3[nH]ccc23)NC1=O` (centres unmarked) [Example 44, 2-isopropyl-8-(6-methyl-7-oxo-6,7-dihydro-1H-pyrrolo[2,3-c]pyridin-4-yl)-6-(methylsulfonyl)-2H-1,4-benzoxazin-3(4H)-one], for which the IC50 is ≤ 1000 nM.
In the case of `Cn1cc(-c2cc(S(C)(=O)=O)cc3c2OC(C)(C)C(=O)N3)c2cc[nH]c2c1=O` [Example 45, 2,2-dimethyl-8-(6-methyl-7-oxo-6,7-dihydro-1H-pyrrolo[2,3-c]pyridin-4-yl)-6-(methylsulfonyl)-2H-1,4-benzoxazin-3(4H)-one], the IC50 is ≤ 1000 nM.
In the case of `CC(C)C1Oc2c(-c3cn(C)c(=O)c4[nH]ccc34)cc(S(C)(=O)=O)cc2N(C)C1=O` (centres unmarked) [Example 47, 2-isopropyl-4-methyl-8-(6-methyl-7-oxo-6,7-dihydro-1H-pyrrolo[2,3-c]pyridin-4-yl)-6-(methylsulfonyl)-2H-1,4-benzoxazin-3(4H)-one] it was ≤ 1000 nM; in that of `Cn1cc(-c2cc(S(C)(=O)=O)cc3c2OC(CCO)C(=O)N3)c2cc[nH]c2c1=O` (centres unmarked) [Example 48, 2-(2-hydroxyethyl)-8-(6-methyl-7-oxo-6,7-dihydro-1H-pyrrolo[2,3-c]pyridin-4-yl)-6-(methylsulfonyl)-2H-1,4-benzoxazin-3(4H)-one], ≤ 1000 nM; in that of `CC(O)c1cc2c(c(-c3cn(C)c(=O)c4[nH]ccc34)c1)OC(C(C)C)C(=O)N2` (centres unmarked) [Example 50, 6-(1-hydroxyethyl)-2-isopropyl-8-(6-methyl-7-oxo-6,7-dihydro-1H-pyrrolo[2,3-c]pyridin-4-yl)-2H-1,4-benzoxazin-3(4H)-one], ≤ 1000 nM.
With `CCS(=O)(=O)c1cc2c(c(-c3cn(C)c(=O)c4[nH]ccc34)c1)OC(C(C)C)C(=O)N2` (centres unmarked) [Example 51, 6-(ethylsulfonyl)-2-isopropyl-8-(6-methyl-7-oxo-6,7-dihydro-1H-pyrrolo[2,3-c]pyridin-4-yl)-2H-1,4-benzoxazin-3(4H)-one], the IC50 is ≤ 1000 nM.

Source of the values: patent US10472358B2, “1H-pyrrolo[2,3-c]pyridin-7(6H)-ones and pyrazolo[3,4-c]pyridin-7(6H)-ones as inhibitors of BET proteins” (Incyte Corporation, priority 2014, dated 2019).
